Experimental findings from patent US9096863B2, “Biosynthetic engineering of glucosinolates” (University of Denmark, priority 2008, dated 2015) are described below.

Assay [1] concerns the target T1, GGP1 (Arabidopsis thaliana, UniProt Q9M0A7).
T1 sequence (Q9M0A7 1-250): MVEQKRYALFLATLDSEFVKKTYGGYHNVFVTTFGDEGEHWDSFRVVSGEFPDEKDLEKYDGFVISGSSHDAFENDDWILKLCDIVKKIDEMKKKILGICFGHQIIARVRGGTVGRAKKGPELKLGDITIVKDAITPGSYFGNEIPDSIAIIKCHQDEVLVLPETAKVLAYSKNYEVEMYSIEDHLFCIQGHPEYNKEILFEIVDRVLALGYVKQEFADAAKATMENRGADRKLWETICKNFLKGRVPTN
Description: In-vitro assay for GGP1 activity with the standard substrate GPNA (absorbance at 405 nm). In kind it is biochemical. Also noted: His-tag (pRSET-A N-terminal leader) (N); made in house; host or cells: E. coli. The following applies: 1 mM GPNA, crude E. coli extract, linear part of the GGP1 curve. The protocol:
In vitro assays were assembled with […] of crude protein extract from a cleared E. coli lysate (before column purification) in 0.1 M Tris-HCl at pH 7.5 to a total volume of 150 μl. Assay is initiated by addition of GPNA to a final concentration of 1 mM and enzyme activity is measured by absorbance at 405 nm. Absorbance was measured with 5 minute intervals from time 0-20 minutes using a spectrophotometer.

For assay [2], the target named is T1, GGP1. The following applies: GS-X as substrate, 10 to 90 μM; purified recombinant His-tagged GGP1; ± SE; Michaelis-Menten fit.
Description: Recombinant GGP1 was expressed in E. coli from the vector pRSET-A (Invitrogen) as an N-terminal His-tag fusion. Cells were grown in LB medium and induced by adding 0.02 mM IPTG at an OD600 of 0.1-0.4. After 16 hours of incubation at 18° C. and 220 rpm, cells were harvested and resuspended in binding buffer [100 mM Tris-HCl, 500 mM NaCl, 50 mM imidazole, pH 7.5] supplemented with 1 mM PMSF and 1 mM MgCl. Cell lysis was achieved by lysozyme treatment and subsequent sonication. Cell debris was spun down for 20 min at 20 000 g, and the supernatant was run through a Ni-NTA column. The column was washed with binding buffer, and bound protein was released with elution buffer [100 mM Tris-HCl, 500 mM NaCl, 500 mM imidazole, pH 7.5]. As a control, a parallel purification was performed for an empty pRSET-A vector.
200 ng of purified GGP1 or 200 ng of control protein were assayed in a final volume of 100 μL containing 20 mM Tris-HCl pH 7.5 and 20 μM GS-X. The reactions were stopped after 10 min upon addition of 300 μL methanol. After an overnight incubation at −20° C., the mixture was spun down for 20 min at 5 000 g and 200 μL of the supernatant were evaporated and redisolved in 50 μL of 75% methanol. Analysis was performed using the LC-MS/MS method previously described. For the determination of Km, similar assays were performed using a range of GS-X concentrations spanning from 10 to 90 μM. […]

Several values for one entry are separate records, joined by “and”; a condition that tells them apart may be missing. Equal entries are not always repeated.

For `N[C@@H](CCC(=O)Nc1ccc([N+](=O)[O-])cc1)C(=O)O` [GPNA, gamma-glutamyl-p-nitroanilide], the “activity of crude extract containing recombinant GGP1 versus control extract (cleavage to p-nitroanilide)” value on GGP1 [1] is “around 10 times”.
A word on the Km: it is the substrate concentration at which the rate is half of its maximum. For `NC(CCC(=O)NC(CSC(Cc1ccccc1)=NO)C(=O)NCC(=O)O)C(=O)O` [GS-X, S-(phenylacetohydroxymoyl)-L-glutathione], at GGP1 [2], the Km was 56.6 µM and 57 µM.
